# Measured values reported in patent publication US20230257715A1, “COMPOSITIONS AND METHODS FOR REGULATING ENTEROENDOCRINE CELL DIFFERENTIATION AND USES THEREOF” (The Children's Medical Center Corporation, priority 2020, published 2023).
# Several values for one entry are separate records, joined by “and”; a condition that tells them apart may be missing. Identical values can stand only once.
# Tests used:
# human duodenal enteroids [1] = assay: Immunofluorescence staining of CHGA, percentage of CHGA-positive enteroids; type: cell-based
# Procedure: Immunofluorescence staining was performed as previously described with minor modifications (Dekkers J F, Alieva M, Wellens L M, et al. Nat Protoc 2019; 14:1l756-1771)^32. Organoids were grown in and isolated from Matrigel® as noted above. 1-3 wells from a 24-well plate were washed in 200 μL of 1× phosphate-buffered saline (PBS) and moved in suspension to a 1.5 mL microcentrifuge tube. Each tube was centrifuged at 800×g for 5 minutes at 4° C. to pellet organoids. PBS was aspirated, and organoids were fixed in 200 μL of 4% paraformaldehyde (PFA) for 20 minutes on ice, shaking. Each tube was centrifuged again as above, and PFA was aspirated. The organoids were then resuspended in 500 μL of 0.3% Triton-X in PBS and moved to a 48-well plate for the remaining steps. The organoids were permeabilized for 30 minutes at room temperature, shaking. Between each step, organoids were allowed to settle to the bottom of each well, the plate was angled, and the solution aspirated by careful pipetting. Organoids were then blocked with 5% bovine serum albumin in PBS for 1.5 hours at room temperature, shaking. This was followed by three five-minute washes in 500 μL of PBS at room temperature, shaking. […]
# This technique was adapted from a previously described method (Borten M A, Bajikar S S, Sasaki N, et al. Sci Rep 2018; 8:5319)^69. […] Any remaining clumped enteroids were manually separated prior to quantification. […]
# human duodenal enteroids [2] = assay: Flow cytometry of CHGA+ cells from enteroids; type: cell-based
# Procedure: Organoids were incubated in Cell Recovery solution for 40-60 minutes at 4° C. to remove the Matrigel® and then centrifuged at 500×g for 5 minutes at 4° C. To achieve single cell suspension, organoids were then incubated in 500 μL of TrypLE™ Express (Thermo Fisher Scientific) at 37° C. for 30 minutes and broken up by repeated pipetting using a bent P1000 pipette tip. Each sample was then diluted in 800 μL of 20% FBS in Advanced DMEM/F12 and then centrifuged at 800×g for 5 minutes at 4° C. To mark dead cells, each sample was then incubated in DAPI (1:1000) diluted in 2% FBS/2 mM EDTA/calcium-free DMEM for 20 minutes at room temperature, then centrifuged at 800×g for 5 minutes at 4° C. and washed in 2% FBS/2 mM EDTA/DMEM. Cells were then incubated in 1% PFA for 15 minutes at room temperature, washed with 2% FBS/PBS and then permeabilized in 0.2% Tween 20 in 2% FBS/PBS for 15 minutes at 37° C. Following centrifugation, cells were resuspended in 0.1% Tween 20/2% FBS/2 mM EDTA in PBS with PE/Alexa Fluor 647-conjugated CHGA (BD Biosciences, 564563, 1:100) or PE/Alexa Fluor 647-conjugated mouse IgG1, K isotype, (BD Biosciences, 554680, 1:200) or with no antibody (the latter two acting as controls) for 30 minutes on ice. Cells were then washed in 0.1% Tween 20/2% FBS/2 mM EDTA in PBS, filtered through a 37-micron mesh, and then analyzed on a BD FACSAria II SORP flow cytometer. […]
compound,measurement,setting,value
"CCn1cc(C(=O)O)c(=O)c2c(N)c(F)c(NC3CCCCC3)cc21 [AS, AS1842856]","CHGA expression by immunofluorescence staining (whole well, qualitative)",human duodenal enteroids [1]; FIG. 5B legend,more
same,percentage of enteroids containing CHGA+ cells (immunofluorescence),"human duodenal enteroids [1]; enteroids, 14-day protocol",85% and 82%
same,number of CHGA+ cells relative to the number seen with G2D12 alone,human duodenal enteroids [2],~50 times
